{
  "source": "patent US12708106B2",
  "about": "(priority 2019, dated 2026)",
  "test_system": "Eimeria and Clostridium perfringens",
  "assay_type": "in vivo, male broilers",
  "key": {"[1]": {"settings": "T4: 10 ppm (Enradin 8%), Eimeria + Clostridium challenge, mean ± SD"}},
  "data": [
    {"substance": "Enramycin", "values": [
      {"measurement": "BWG—Body Weight Gain 1-7 D", "setting": "[1]", "value": "90.95 ± 5.11", "unit": "b g"},
      {"measurement": "FCR (Feed Conversion Ratio) 1-7 D", "setting": "[1]", "value": "1.568 ± 0.123"},
      {"measurement": "BWG—Body Weight Gain 1-14 D", "setting": "T4: 10 ppm, challenged", "value": "413.37 ± 12.89", "unit": "b g"},
      {"measurement": "BWG—Body Weight Gain 1-21 D", "setting": "T4: 10 ppm, challenged", "value": "926.22 ± 23.58", "unit": "b g"},
      {"measurement": "BWG—Body Weight Gain 1-28 D", "setting": "T4: 10 ppm, challenged", "value": "1595.5 ± 42.62", "unit": "b g"},
      {"measurement": "FCR (Feed Conversion Ratio) 1-14 D", "setting": "T4: 10 ppm, challenged", "value": "1.070 ± 0.049"},
      {"measurement": "FCR (Feed Conversion Ratio) 1-21 D", "setting": "T4: 10 ppm, challenged", "value": "1.255 ± 0.036", "unit": "ab"},
      {"measurement": "FCR (Feed Conversion Ratio) 1-28 D", "setting": "T4: 10 ppm, challenged", "value": "1.228 ± 0.024", "unit": "ab"}
    ]}
  ]
}
